Results as given in PMC8391922, “The Combined Effect of Branching and Elongation on the Bioactivity Profile of Phytocannabinoids. Part I: Thermo-TRPs” (Biomedicines, 2021).
Read-outs that look alike come from different tables or passages of the source.

Molecular target: T1, rat TRPV2 (Rattus norvegicus, UniProt Q9WUD2)
T1 construct: expressed in transfected cells; host or cells: HEK-293
T1 sequence (Q9WUD2 1-761): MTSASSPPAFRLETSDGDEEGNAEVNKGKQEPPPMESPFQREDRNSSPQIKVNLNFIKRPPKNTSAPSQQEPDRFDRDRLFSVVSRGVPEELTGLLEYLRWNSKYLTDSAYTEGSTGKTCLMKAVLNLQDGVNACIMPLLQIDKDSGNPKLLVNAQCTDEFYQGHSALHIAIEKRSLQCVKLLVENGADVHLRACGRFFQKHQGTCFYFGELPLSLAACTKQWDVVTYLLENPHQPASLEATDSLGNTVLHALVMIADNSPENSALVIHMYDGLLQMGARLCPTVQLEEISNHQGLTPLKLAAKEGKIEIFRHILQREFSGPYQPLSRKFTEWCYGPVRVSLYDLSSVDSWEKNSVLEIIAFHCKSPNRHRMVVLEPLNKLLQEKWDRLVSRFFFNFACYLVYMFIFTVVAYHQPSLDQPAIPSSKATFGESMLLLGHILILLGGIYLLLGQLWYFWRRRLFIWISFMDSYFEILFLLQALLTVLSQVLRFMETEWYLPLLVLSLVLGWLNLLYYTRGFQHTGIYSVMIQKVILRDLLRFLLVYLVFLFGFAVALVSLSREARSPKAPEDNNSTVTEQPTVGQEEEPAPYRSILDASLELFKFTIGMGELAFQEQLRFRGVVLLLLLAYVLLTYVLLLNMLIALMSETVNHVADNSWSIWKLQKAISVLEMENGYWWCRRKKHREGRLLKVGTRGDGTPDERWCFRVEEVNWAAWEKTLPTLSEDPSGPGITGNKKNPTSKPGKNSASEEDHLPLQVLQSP
Experiment: TRPV2-mediated elevation of intracellular Ca2+ (Fluo-4) in transfected HEK-293 cells
Type: cell-based
Conditions: for IC50: compound added 5 min before agonist CBD 2 μM; for TRPV2 Efficacy (% IM 4 μM): percentage of the response to ionomycin 4 μM, HEK-293
Method: Assays of rat TRPA1, TRPV2, TRPV3, TRPV4, and TRPM8 or human TRPV1 mediated elevation of intracellular Ca ^2+ in transfected HEK-293 cells were performed with a continuous monitoring of [Ca ^2+]i during the experiments. […] Cell fluorescence before and after the addition of various concentrations of test compounds was measured, normalizing the effects against the response to ionomycin (IM, 4 μM). The values of the effect on [Ca^2+]i in HEK-293 cells not transfected were used as baseline and subtracted from the values obtained from transfected cells. For TRPA1, agonist efficacy was expressed as a percentage of the effect on [Ca ^2+]i observed with 100 μM allylisothiocyanate. […] In the TRPV3 assay, TRPV3-expressing HEK293 cells were first sensitized with the structurally unrelated agonist 2-aminoethoxydiphenyl borate (100 μM). Antagonist/desensitizing behavior is evaluated against the agonist of the TRP analyzed by adding the compounds directly in the quartz cuvette 5 min before stimulation of cells with the agonist. […] Dose-response curve fitting (sigmoidal dose-response variable slope) and parameter estimation were performed with Graph-Pad Prism8 (GraphPad Software Inc., San Diego, CA, USA). All determinations were performed at least in triplicate.

[1] = antagonist/desensitizing, read-out: IC50 TRPV2
[2] = IC50 TRPV2, antagonist/desensitizing

Compound: C=C(C)[C@@H]1CCC(C)=C[C@H]1c1c(O)cc(C(C)(C)CCCCCC)cc1O [1b, Depentyl-α,α-dimethylheptyl-cannabidiol]
- IC50 [1]: 16.8 ± 0.2 µM
- TRPV2 Efficacy (% IM 4 μM): < 10%

Compound: CCCCCCC(C)(C)c1cc(O)c(C/C=C(\C)CCC=C(C)C)c(O)c1 [7b, Depentyl-α,α-dimethylheptyl-cannabigerol]
- EC50: 9.8 ± 0.6 µM
- IC50 [2]: 39.4 ± 4.5 µM
- TRPV2 Efficacy (% IM 4 μM): 65.3 ± 0.7%

Compound: CCCCCCC(C)(C)c1cc(O)c2c(c1)OC(C)(CCC=C(C)C)C=C2 (stereo not drawn) [8b, Depentyl-α,α-dimethylheptyl-cannabichromene]
- EC50: > 50 µM
- IC50 [2]: 22.6 ± 0.2 µM
- TRPV2 Efficacy (% IM 4 μM): 76.1 ± 0.6%

Compound: CCCCCCCc1cc(O)c2c(c1)OC(C)(CCC=C(C)C)C=C2 (stereo not drawn) [8c, Depentyl-5-n-heptylcannabichromene]
- IC50 [1]: 9 ± 0.8 µM
- TRPV2 Efficacy (% IM 4 μM): <10%

Compound: CCCCC(C)(C)c1cc(O)c2c(c1)OC(C)(CCC=C(C)C)C=C2 (stereo not drawn) [8d, Depentyl-5-α,α-dimethylpentylcannabichromene]
- IC50 [1]: 13.3 ± 1.1 µM
- TRPV2 Efficacy (% IM 4 μM): <10%
